The text below walks through data of patent US20240368127A1, “HSD17B13 INHIBITORS AND USES THEREOF” (FL2022-001, Inc., priority 2021, published 2024).

The target in the assay is T1, Recombinant human HSD17B13 enzyme (Homo sapiens, UniProt Q7Z5P4).
T1 sequence (Q7Z5P4 20-300): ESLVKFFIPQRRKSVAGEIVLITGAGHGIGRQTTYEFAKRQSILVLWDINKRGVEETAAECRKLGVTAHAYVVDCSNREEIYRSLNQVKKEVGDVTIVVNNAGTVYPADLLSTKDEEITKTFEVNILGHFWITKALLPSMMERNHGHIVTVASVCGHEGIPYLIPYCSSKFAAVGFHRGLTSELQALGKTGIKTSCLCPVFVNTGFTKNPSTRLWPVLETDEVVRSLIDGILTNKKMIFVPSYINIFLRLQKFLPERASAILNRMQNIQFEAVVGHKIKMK
Kind of assay: HSD17b13 NAD(P)H-Glo biochemical assay. Conditions: 50 μM estradiol, 1 mM NAD+, 37° C. for 3 hours; read-out: HSD17β13 IC50. The procedure:
Example B-1: HSD17b13 NAD (P) H-Glo Biochemical Assay
Recombinant human HSD17B13 enzyme. Substrate: estradiol (Sigma β-Estradiol E8875), 100 mM in DMSO. Cofactor: NAD+ Grade I free acid (Sigma 10127965001), 20 mM in H2O. Assay buffer final concentration: 20 mM Tris pH7.4 with 0.002% Tween-20 and 0.02% BSA. Assay performed in 384 well solid bottom plate (Corning 3570). Enzymatic activity detected by NAD (P) H-Glo™ Detection System (Promega G9062).
Inhibitor compounds were serially diluted in DMSO and then further diluted in assay buffer to a 10× concentration consisting of 1% DMSO.
HSD17b13 enzyme was diluted in 1× assay buffer to the desired enzyme concentration based on the specific activity of the enzyme lot. 20 μL of diluted enzyme was added to each well along with 2.5 μL of 10× inhibitor solution. Assay plate was incubated at RT for 20 minutes, and then 2.5 μL of a 10× substrate/cofactor mix was added to each well for a final concentration of 50 μM estradiol and 1 mM NAD+. Assay plate was incubated at 37° C. for 3 hours. NAD (P) H-Glo™ Detection System reagents were prepared according to manufacturer's specifications, and 25 μL was added to each well. After incubating for 1 hour at RT, luminescence was measured.
The term IC50 denotes the point on the concentration scale where inhibition reaches its midpoint. Turning to `CNc1nn(-c2cc(C(F)(F)F)c(F)c(O)c2F)c2ccc(N3CCN(S(C)(=O)=O)C[C@H]3Cc3ccccc3)cc12` [Compound 2.14, (R)-3-(5-(2-Benzyl-4-(methylsulfonyl)piperazin-1-yl)-3-(methylamino)-1H-indazol-1-yl)-2,6-difluoro-5-(trifluoromethyl)phenol], the IC50 was not above 100 nM.
Regarding `Cc1nn(-c2ccc(F)c(O)c2F)c2cnc(N3CCN(S(C)(=O)=O)C[C@H]3Cc3ccccc3)cc12` [Compound 2.15, (R)-3-(5-(2-Benzyl-4-(methylsulfonyl)piperazin-1-yl)-3-methyl-1H-pyrazolo[3,4-c]pyridin-1-yl)-2,6-difluorophenol], the IC50 was not above 100 nM.
On to `Cc1nn(-c2ccc(Cl)c(O)c2F)c2cnc(N3CCN(S(C)(=O)=O)C[C@H]3Cc3ccccc3)cc12` [Compound 2.16, (R)-3-(5-(2-Benzyl-4-(methylsulfonyl)piperazin-1-yl)-3-methyl-1H-pyrazolo[3,4-c]pyridin-1-yl)-6-chloro-2-fluorophenol], for which the IC50 was not above 100 nM.
In the case of `Cc1nn(-c2ncc(Cl)c(O)c2F)c2cnc(N3CCN(S(C)(=O)=O)C[C@H]3Cc3ccccc3)cc12` [Compound 2.17, (R)-2-(5-(2-Benzyl-4-(methylsulfonyl)piperazin-1-yl)-3-methyl-1H-pyrazolo[3,4-c]pyridin-1-yl)-5-chloro-3-fluoropyridin-4-ol] it was 100 to 1000 nM; in that of `CS(=O)(=O)N1CCN(c2ncc3c(n2)c(Cl)nn3-c2cc(C(F)(F)F)c(F)c(O)c2F)[C@H](Cc2ccccc2)C1` [Compound 2.18, (R)-3-(5-(2-Benzyl-4-(methylsulfonyl)piperazin-1-yl)-3-chloro-1H-pyrazolo[4,3-d]pyrimidin-1-yl)-2,6-difluoro-5-(trifluoromethyl)phenol], not above 100 nM; in that of `CS(=O)(=O)N1CCN(c2cc3cnn(-c4cc(C(F)(F)F)c(F)c(O)c4F)c3cn2)[C@H](Cc2ccccc2)C1` [Compound 2.19, (R)-3-(5-(2-Benzyl-4-(methylsulfonyl)piperazin-1-yl)-1H-pyrazolo[3,4-c]pyridin-1-yl)-2,6-difluoro-5-(trifluoromethyl)phenol], not above 100 nM.
For the compound `CS(=O)(=O)N1CCN(c2cc3c(Cl)nn(-c4cc(C(F)(F)F)c(F)c(O)c4F)c3cn2)[C@H](Cc2ccccc2)C1` [Compound 2.20, (R)-3-(5-(2-Benzyl-4-(methylsulfonyl)piperazin-1-yl)-3-chloro-1H-pyrazolo[3,4-c]pyridin-1-yl)-2,6-difluoro-5-(trifluoromethyl)phenol], the IC50 is not above 100 nM.
In the case of `Cc1nn(-c2cc(C(F)(F)F)c(Cl)c(O)c2F)c2cnc(N3CCN(S(C)(=O)=O)C[C@H]3Cc3ccccc3)nc12` [Compound 2.21, (R)-3-(5-(2-Benzyl-4-(methylsulfonyl)piperazin-1-yl)-3-methyl-1H-pyrazolo[4,3-d]pyrimidin-1-yl)-6-chloro-2-fluoro-5-(trifluoromethyl)phenol] it was not above 100 nM; in that of `CS(=O)(=O)N1CCN(c2cc3c(Cl)nn(-c4cc(C(F)(F)F)c(Cl)c(O)c4F)c3cn2)[C@H](Cc2ccccc2)C1` [Compound 2.22, (R)-3-(5-(2-Benzyl-4-(methylsulfonyl)piperazin-1-yl)-3-chloro-1H-pyrazolo[3,4-c]pyridin-1-yl)-6-chloro-2-fluoro-5-(trifluoromethyl)phenol], not above 100 nM; in that of `CS(=O)(=O)N1CCN(c2cc3c(N)nn(-c4cc(C(F)(F)F)c(F)c(O)c4F)c3cn2)[C@H](Cc2ccccc2)C1` [Compound 2.23, (R)-3-(3-Amino-5-(2-benzyl-4-(methylsulfonyl)piperazin-1-l)-1H-pyrazolo[3,4-c]pyridin-1-yl)-2,6-difluoro-5-(trifluoromethyl)phenol], not above 100 nM.
Regarding `CNc1nn(-c2cc(C(F)(F)F)c(F)c(O)c2F)c2cnc(N3CCN(S(C)(=O)=O)C[C@H]3Cc3ccccc3)cc12` [Compound 2.24, (R)-3-(5-(2-Benzyl-4-(methylsulfonyl)piperazin-1-yl)-3-(methylamino)-1H-pyrazolo[3,4-c]pyridin-1-yl)-2,6-difluoro-5-(trifluoromethyl)phenol], the IC50 was not above 100 nM.
Turning to `CN(C)c1nn(-c2cc(C(F)(F)F)c(F)c(O)c2F)c2ccc(N3CCN(S(C)(=O)=O)C[C@H]3Cc3ccccc3)cc12` [Compound 2.25, (R)-3-(5-(2-Benzyl-4-(methylsulfonyl)piperazin-1-yl)-3-(dimethylamino)-1H-indazol-1-yl)-2,6-difluoro-5-(trifluoromethyl)phenol], the IC50 is not above 100 nM.
`Cc1nn(-c2cc(O)cc(C(F)(F)F)c2)c2ccc(N3CCN(S(C)(=O)=O)C[C@H]3Cc3ccccc3)cc12` [Compound 2.26, (R)-3-(5-(2-Benzyl-4-(methylsulfonyl)piperazin-1-yl)-3-methyl-1H-indazol-1-yl)-5-(trifluoromethyl)phenol]: the 50% inhibitory concentration (IC50) is 100 to 1000 nM.
The result for `Cc1nn(-c2cc(C(F)(F)F)c(Cl)c(O)c2F)c2ccc(N3CCN(S(C)(=O)=O)C[C@H]3Cc3ccccc3)cc12` [Compound 2.27, (R)-3-(5-(2-Benzyl-4-(methylsulfonyl)piperazin-1-yl)-3-methyl-1H-indazol-1-yl)-6-chloro-2-fluoro-5-(trifluoromethyl)phenol] reads not above 100 nM; that for `Cc1nn(-c2cc(C(F)(F)F)cc(O)c2F)c2ccc(N3CCN(S(C)(=O)=O)C[C@H]3Cc3ccccc3)cc12` [Compound 2.28, (R)-3-(5-(2-Benzyl-4-(methylsulfonyl)piperazin-1-yl)-3-methyl-1H-indazol-1-yl)-2-fluoro-5-(trifluoromethyl)phenol], not above 100 nM; that for `Cc1c2cc(N3CCN(S(C)(=O)=O)C[C@H]3Cc3ccccc3)ccc2nn1-c1cc(O)cc(C(F)(F)F)n1` [Compound 2.30, (R)-2-(5-(2-Benzyl-4-(methylsulfonyl)piperazin-1-yl)-3-methyl-2H-indazol-2-yl)-6-(trifluoromethyl)pyridin-4-ol], 1000 to 30000 nM.
Turning to `Cc1nn(-c2cc(C(F)(F)F)c(F)c(O)c2F)c2cnc(N3CCOC[C@H]3Cc3ccccc3)nc12` [Compound 2.31, (R)-3-(5-(3-Benzylmorpholino)-3-methyl-1H-pyrazolo[4,3-d]pyrimidin-1-yl)-2,6-difluoro-5-(trifluoromethyl)phenol], the IC50 was not above 100 nM.
With `CCN1CCN(c2ncc3c(n2)c(C)nn3-c2cc(C(F)(F)F)c(F)c(O)c2F)[C@H](Cc2ccccc2)C1` [Compound 2.32, (R)-3-(5-(2-Benzyl-4-ethylpiperazin-1-yl)-3-methyl-1H-pyrazolo[4,3-d]pyrimidin-1-yl)-2,6-difluoro-5-(trifluoromethyl)phenol], the IC50 is not above 100 nM.
With `Cc1nn(-c2cc(C(F)(F)F)c(F)c(O)c2F)c2cc(F)c(N3CCN(S(C)(=O)=O)C[C@H]3Cc3ccccc3)nc12` [Compound 2.33, (R)-3-(5-(2-Benzyl-4-(methylsulfonyl)piperazin-1-yl)-6-fluoro-3-methyl-1H-pyrazolo[4,3-b]pyridin-1-yl)-2,6-difluoro-5-(trifluoromethyl)phenol], the IC50 was not above 100 nM.
In the case of `Cc1nn(-c2cc(C(F)(F)F)c(F)c(O)c2F)c2cc(Cl)c(N3CCN(S(C)(=O)=O)C[C@H]3Cc3ccccc3)nc12` [Compound 2.34, (R)-3-(5-(2-Benzyl-4-(methylsulfonyl)piperazin-1-yl)-6-chloro-3-methyl-1H-pyrazolo[4,3-b]pyridin-1-yl)-2,6-difluoro-5-(trifluoromethyl)phenol] it was not above 100 nM.
For the compound `Cc1nn(-c2cc(Cl)c(F)c(O)c2F)c2cnc(N3CCN(S(C)(=O)=O)C[C@H]3Cc3ccccc3)nc12` [Compound 2.35, (R)-3-(5-(2-Benzyl-4-(methylsulfonyl)piperazin-1-yl)-3-methyl-1H-pyrazolo[4,3-c]pyrimidin-1-yl)-5-chloro-2,6-difluorophenol], the IC50 is not above 100 nM.
For `CS(=O)(=O)N1CCN(c2ncc3c(cnn3-c3cc(O)c(F)c(C(F)(F)F)c3)n2)[C@H](Cc2ccccc2)C1` [Compound 2.36, (R)-5-(5-(2-Benzyl-4-(methylsulfonyl)piperazin-1-yl)-1H-pyrazolo[4,3-d]pyrimidin-1-yl)-2-fluoro-3-(trifluoromethyl)phenol], the IC50 is not above 100 nM.
Regarding `Cn1nc(-c2cc(C(F)(F)F)c(F)c(O)c2F)c2cnc(N3CCN(S(C)(=O)=O)C[C@H]3Cc3ccccc3)nc21` [Compound 5, (R)-3-(6-(2-Benzyl-4-(methylsulfonyl)piperazin-1-yl)-1-methyl-1H-pyrazolo[3,4-d]pyrimidin-3-yl)-2,6-difluoro-5-(trifluoromethyl)phenol], the IC50 was not above 100 nM.
Consider `Cn1nc(-c2cc(C(F)(F)F)c(F)c(O)c2F)c2cnc(N3CCOCC3CC3CC3)nc21` (stereo not drawn) [Compound 5.01, 3-(6-(3-(Cyclopropylmethyl)morpholino)-1-methyl-1H-pyrazolo[3,4-d]pyrimidin-3-yl)-2,6-difluoro-5-(trifluoromethyl)phenol], for which the IC50 was not above 100 nM.
